The values below come from patent publication US10399940B2, “Substituted pyrrolidines and methods of use” (AbbVie S.à.r.l., priority 2016, dated 2019).

Where two headings read alike, the source gives them in different places.

This experiment concerns the target T1, F508delCFTR (Homo sapiens, UniProt P13569, DEL508-508).
T1 construct: expressed in transfected cells; host or cells: CFBE41o- (human lung derived epithelial cell line), doxycycline-inducible expression
Briefly: Cell Surface Expression-Horse Radish Peroxidase (CSE-HRP) assay. The experiment is classed as cell-based. The following applies: CFBE41o-F508delCFTR-HRP cells; for Maximum % activity (with co-corrector): with co-corrector (2 μM); for Maximum % activity (with co-corrector) / Maximum % activity (without co-corrector): normalized to on-plate positive control, highest concentration 20 μM. A digest of the protocol: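 CFBE41o- cells expressed F508delCFTR with HRP in the fourth exofacial loop, induced by 0.5 μg/mL doxycycline for 72 h at 37 °C. Compounds alone or with 2 μM co-corrector ran 18–24 h at 33 °C, 8-point 3-fold from 20 μM. Washed-cell luminol luminescence was normalized to DMSO and positive control, fitted sigmoidally for EC50 (three plates).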

Where [1] appears, read: test compound without co-corrector, 18-24 hours at 33° C., read-out: EC50 (without co-corrector).
Setting [2] is: with co-corrector (2 μM of 3-[(2R,4R)-4-({[1-(2,2-difluoro-1,3-benzodioxol-5-yl)cyclopropyl]carbonyl}amino)-7-methoxy-3,4-dihydro-2H-chromen-2-yl]benzoic acid), read-out: EC50 (with co-corrector).

T1 sequence (P13569 with tags, fused parts or gaps DEL508-508): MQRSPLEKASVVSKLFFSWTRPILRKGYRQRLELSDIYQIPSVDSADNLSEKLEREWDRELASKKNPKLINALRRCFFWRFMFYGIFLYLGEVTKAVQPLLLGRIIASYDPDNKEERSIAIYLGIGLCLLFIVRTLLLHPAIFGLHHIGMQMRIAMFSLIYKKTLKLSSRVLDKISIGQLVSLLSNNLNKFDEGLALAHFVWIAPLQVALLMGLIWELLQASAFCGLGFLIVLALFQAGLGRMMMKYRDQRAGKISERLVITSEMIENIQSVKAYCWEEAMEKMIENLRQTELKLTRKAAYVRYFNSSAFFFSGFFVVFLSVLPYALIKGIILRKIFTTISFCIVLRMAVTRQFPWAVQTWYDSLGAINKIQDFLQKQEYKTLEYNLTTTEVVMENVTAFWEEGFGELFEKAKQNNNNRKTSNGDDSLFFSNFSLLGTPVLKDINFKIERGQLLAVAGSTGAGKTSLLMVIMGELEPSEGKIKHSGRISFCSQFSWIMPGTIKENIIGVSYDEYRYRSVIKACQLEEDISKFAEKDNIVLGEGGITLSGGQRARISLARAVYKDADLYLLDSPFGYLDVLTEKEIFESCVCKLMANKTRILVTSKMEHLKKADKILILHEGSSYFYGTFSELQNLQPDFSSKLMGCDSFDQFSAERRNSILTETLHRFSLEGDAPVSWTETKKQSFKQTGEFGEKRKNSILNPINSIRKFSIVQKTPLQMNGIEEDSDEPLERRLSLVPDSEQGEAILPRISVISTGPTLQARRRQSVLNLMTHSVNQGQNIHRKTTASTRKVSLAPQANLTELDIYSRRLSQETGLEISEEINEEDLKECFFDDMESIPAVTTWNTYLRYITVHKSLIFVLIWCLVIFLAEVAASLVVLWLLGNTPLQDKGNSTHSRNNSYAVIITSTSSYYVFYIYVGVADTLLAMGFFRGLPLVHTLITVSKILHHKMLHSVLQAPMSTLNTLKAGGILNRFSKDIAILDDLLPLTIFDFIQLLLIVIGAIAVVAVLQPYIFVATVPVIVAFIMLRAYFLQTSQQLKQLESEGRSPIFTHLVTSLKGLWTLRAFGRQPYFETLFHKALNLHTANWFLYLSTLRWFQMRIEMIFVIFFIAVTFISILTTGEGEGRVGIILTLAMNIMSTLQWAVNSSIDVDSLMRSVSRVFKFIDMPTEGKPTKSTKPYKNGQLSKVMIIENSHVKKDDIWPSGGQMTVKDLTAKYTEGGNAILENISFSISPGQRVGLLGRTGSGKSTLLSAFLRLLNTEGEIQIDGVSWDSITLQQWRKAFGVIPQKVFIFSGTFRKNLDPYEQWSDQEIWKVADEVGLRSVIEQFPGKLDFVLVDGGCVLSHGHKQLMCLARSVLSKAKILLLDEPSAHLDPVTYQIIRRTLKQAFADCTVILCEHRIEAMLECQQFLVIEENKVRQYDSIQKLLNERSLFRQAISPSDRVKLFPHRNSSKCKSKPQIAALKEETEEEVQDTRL

One may read the EC50 as the concentration giving half of the maximal effect. As for `COc1ncc(Br)cc1CO[C@H]1[C@H](C(C)(C)C)[C@@H](C(=O)O)N(C(=O)[C@@H]2CCCO2)[C@H]1c1ccccc1C1CC1` [Example 173, (2S,3R,4S,5S)-4-[(5-bromo-2-methoxypyridin-3-yl)methoxy]-3-tert-butyl-5-(2-cyclopropylphenyl)-1-[(2S)-oxolane-2-carbonyl]pyrrolidine-2-carboxylic acid], the “Maximum % activity (with co-corrector)” value was “+++ (≥350)” and the “Maximum % activity (without co-corrector)” value is given as “+++ (≥200)”. For the same compound, the 50% effective concentration (EC50) under setting [1] fell in the range of 1000 to 10000 nM. Moreover, the 50% effective concentration (EC50) under setting [2] was 1000 to 10000 nM.
Take `CC(C)OC(=O)N1[C@H](C(=O)O)[C@@H](C(C)(C)C)[C@H](OCc2cc(C(F)(F)F)cnc2O)[C@@H]1c1ccccc1` [Example 107, (2S,3R,4S,5S)-3-tert-butyl-4-{[2-hydroxy-5-(trifluoromethyl)pyridin-3-yl]methoxy}-5-phenyl-1-{[(propan-2-yl)oxy]carbonyl}pyrrolidine-2-carboxylic acid]: the “Maximum % activity (with co-corrector)” value was “++ (≥150 and <350)”; the “Maximum % activity (without co-corrector)” value is “+ (<100)”. Besides, the EC50 under setting [1] was 1000 to 10000 nM. Further, under setting [2], the concentration for a half-maximal effect (EC50) was in the range of 1000 to 10000 nM.
Turning to `CCS(=O)(=O)NC(=O)[C@@H]1[C@@H](C(C)(C)C)[C@H](OCc2cc(C(F)(F)F)ccc2OC)[C@H](c2ccccc2)N1C(=O)C1CCCCC1` [Example 24, (2S,3R,4S,5S)-3-tert-butyl-1-(cyclohexanecarbonyl)-N-(ethanesulfonyl)-4-{[2-methoxy-5-(trifluoromethyl)phenyl]methoxy}-5-phenylpyrrolidine-2-carboxamide], the “Maximum % activity (with co-corrector)” value was “++ (≥150 and <350)”; the “Maximum % activity (without co-corrector)” value is given as “+ (<100)”. Further, under setting [1], the EC50 was more than 10000 nM. The half-maximal effective concentration (EC50) under setting [2] is 1000 to 10000 nM.
`COc1ncc(C(C)(C)C)cc1CO[C@H]1[C@H](C(C)(C)C)[C@@H](C(=O)O)N(C(=O)C2CCCCC2)[C@H]1c1cccnc1OC(C)C` [Example 250, (2S,3R,4S,5S)-3-tert-butyl-4-[(5-tert-butyl-2-methoxypyridin-3-yl)methoxy]-1-(cyclohexanecarbonyl)-5-{2-[(propan-2-yl)oxy]pyridin-3-yl}pyrrolidine-2-carboxylic acid]: the “Maximum % activity (with co-corrector)” value is recorded as “+++ (≥350)”; the “Maximum % activity (without co-corrector)” value was “++ (≥100 and <200)”. Moreover, under setting [1], the EC50 was less than 1000 nM. In addition, the 50% effective concentration (EC50) under setting [2] was less than 1000 nM.
On to `COc1ccc(C(F)(F)F)cc1C(C)CO[C@H]1[C@H](C(C)(C)C)[C@@H](C(=O)O)N(C(=O)[C@@H]2CCCCO2)[C@H]1c1ccccc1C` (stereo partly drawn) [Example 261, (2S,3R,4S,5S)-3-tert-butyl-4-{2-[2-methoxy-5-(trifluoromethyl)phenyl]propoxy}-5-(2-methylphenyl)-1-[(2S)-oxane-2-carbonyl]pyrrolidine-2-carboxylic acid], for which the “Maximum % activity (with co-corrector)” value is “+++ (≥350)” and the “Maximum % activity (without co-corrector)” value is “+++ (≥200)”. Further, under setting [1], the EC50 was 1000 to 10000 nM. For the same compound, the EC50 under setting [2] is less than 1000 nM.
In the case of `COc1ncc(C2CCC2)cc1CO[C@H]1[C@H](C(C)(C)C)[C@@H](C(=O)O)N(C(=O)[C@@H]2CCCO2)[C@H]1c1ccccc1Br` [Example 144, (2S,3R,4S,5S)-5-(2-bromophenyl)-3-tert-butyl-4-[(5-cyclobutyl-2-methoxypyridin-3-yl)methoxy]-1-[(2S)-oxolane-2-carbonyl]pyrrolidine-2-carboxylic acid], the “Maximum % activity (with co-corrector)” value is “+++ (≥350)”; the “Maximum % activity (without co-corrector)” value is “++ (≥100 and <200)”. Also, the EC50 under setting [1] is less than 1000 nM. The concentration for a half-maximal effect (EC50) under setting [2] was less than 1000 nM.
For `COc1ncc(C(F)(F)F)cc1CO[C@H]1[C@H](C(C)(C)C)[C@@H](C(=O)O)N(C(=O)[C@@H]2CCCCO2)[C@H]1c1ccccc1-c1cccc(Cl)c1` [Example 191, (2S,3R,4S,5S)-3-tert-butyl-5-(3′-chloro[1,1′-biphenyl]-2-yl)-4-{[2-methoxy-5-(trifluoromethyl)pyridin-3-yl]methoxy}-1-[(2S)-oxane-2-carbonyl]pyrrolidine-2-carboxylic acid], the “Maximum % activity (with co-corrector)” value is on record as “+++ (≥350)” and the “Maximum % activity (without co-corrector)” value is reported as “+++ (≥200)”. The EC50 under setting [1] was in the range of 1000 to 10000 nM. The EC50 under setting [2] is 1000 to 10000 nM.
Take `COc1ncc(C(F)(F)F)cc1CO[C@H]1[C@H](C(C)(C)C)[C@@H](C(=O)O)N(C(=O)[C@H]2CCCCO2)[C@H]1c1cccc(Cl)c1` [Example 125, (2S,3R,4S,5S)-3-tert-butyl-5-(3-chlorophenyl)-4-{[2-methoxy-5-(trifluoromethyl)pyridin-3-yl]methoxy}-1-[(2R)-oxane-2-carbonyl]pyrrolidine-2-carboxylic acid]: the “Maximum % activity (with co-corrector)” value is “++ (≥150 and <350)”; the “Maximum % activity (without co-corrector)” value was “+ (<100)”. Under setting [1], the EC50 was less than 1000 nM. Under setting [2], the EC50 is less than 1000 nM.
On to `COc1ncc(C(F)(F)F)cc1CO[C@H]1[C@H](C(C)(C)C)[C@@H](C(=O)O)N(C(=O)O[C@@H](C)C(F)(F)F)[C@H]1c1cccnc1OC(C)C` [Example 271, (2S,3R,4S,5S)-3-tert-butyl-4-{[2-methoxy-5-(trifluoromethyl)pyridin-3-yl]methoxy}-5-{2-[(propan-2-yl)oxy]pyridin-3-yl}-1-({[(2S)-1,1,1-trifluoropropan-2-yl]oxy}carbonyl)pyrrolidine-2-carboxylic acid], for which the “Maximum % activity (with co-corrector)” value was “+++ (≥350)”; the “Maximum % activity (without co-corrector)” value was “++ (≥100 and <200)”. Besides, the EC50 under setting [1] was less than 1000 nM. Besides, under setting [2], the 50% effective concentration (EC50) was less than 1000 nM.
Consider `COc1ncc(C2CC2)cc1CO[C@H]1[C@H](C(C)(C)C)[C@@H](C(=O)O)N(C(=O)[C@@H]2CCCCO2)[C@H]1c1ccccc1C` [Example 217, (2S,3R,4S,5S)-3-tert-butyl-4-[(5-cyclopropyl-2-methoxypyridin-3-yl)methoxy]-5-(2-methylphenyl)-1-[(2S)-oxane-2-carbonyl]pyrrolidine-2-carboxylic acid], for which the “Maximum % activity (with co-corrector)” value is on record as “+++ (≥350)” and the “Maximum % activity (without co-corrector)” value is reported as “+++ (≥200)”. Moreover, the concentration for a half-maximal effect (EC50) under setting [1] is 1000 to 10000 nM. The EC50 under setting [2] was less than 1000 nM.
For `COc1ncc(C(F)(F)F)cc1CO[C@@H]1[C@H](C(C)(C)C)[C@@H](C(=O)O)N(C(=O)[C@@H]2CCCO2)[C@H]1c1cccc(C(C)(C)C)c1` [Example 122, (2S,3R,4R,5S)-3-tert-butyl-5-(3-tert-butylphenyl)-4-{[2-methoxy-5-(trifluoromethyl)pyridin-3-yl]methoxy}-1-[(2S)-oxolane-2-carbonyl]pyrrolidine-2-carboxylic acid], in that order: “+ (<150)”, “+ (<100)”, more than 10000 nM and more than 10000 nM.
The matching figures for `COc1ncc(C2CCCCC2)cc1CO[C@H]1[C@H](C(C)(C)C)[C@@H](C(=O)O)N(C(=O)OC(C)C)[C@H]1c1ccccc1` [Example 43, (2S,3R,4S,5S)-3-tert-butyl-4-[(5-cyclohexyl-2-methoxypyridin-3-yl)methoxy]-5-phenyl-1-{[(propan-2-yl)oxy]carbonyl}pyrrolidine-2-carboxylic acid]: “+++ (≥350)”, “+ (<100)”, 1000 to 10000 nM and 1000 to 10000 nM.
On to “(2S,3R,4S,5S)-4-[(5-bromo-2-methoxypyridin-3-yl)methoxy]-3-tert-butyl-5-(2-methylphenyl)-1-[(2S)-oxane-2-carbonyl]pyrrolidine-2-carboxylic acid [Example 186]”, for which the “Maximum % activity (with co-corrector)” value is “+++ (≥350)” and the “Maximum % activity (without co-corrector)” value is reported as “+++ (≥200)”. In addition, the half-maximal effective concentration (EC50) under setting [1] lay in the range of 1000 to 10000 nM. The EC50 under setting [2] is less than 1000 nM.
As to `COc1ncc(C(F)(F)F)cc1CO[C@H]1[C@H](C(C)(C)C)[C@@H](C(=O)O)N(C(=O)[C@H]2C[C@@H]3CC[C@H]2O3)[C@H]1c1cccc(C(C)(C)C)c1` [Example 154, (2S,3R,4S,5S)-3-tert-butyl-5-(3-tert-butylphenyl)-4-{[2-methoxy-5-(trifluoromethyl)pyridin-3-yl]methoxy}-1-[(1R,2S,4S)-7-oxabicyclo[2.2.1]heptane-2-carbonyl]pyrrolidine-2-carboxylic acid], the “Maximum % activity (with co-corrector)” value is “++ (≥150 and <350)”; the “Maximum % activity (without co-corrector)” value was “+ (<100)”. Besides, under setting [1], the half-maximal effective concentration (EC50) was less than 1000 nM. The half-maximal effective concentration (EC50) under setting [2] is less than 1000 nM.
Turning to `COCCS(=O)(=O)NC(=O)[C@@H]1[C@@H](C(C)(C)C)[C@H](OCc2cc(C(F)(F)F)ccc2OC)[C@H](c2ccccc2)N1C(=O)C1CCCCC1` [Example 21, (2S,3R,4S,5S)-3-tert-butyl-1-(cyclohexanecarbonyl)-N-(2-methoxyethanesulfonyl)-4-{[2-methoxy-5-(trifluoromethyl)phenyl]methoxy}-5-phenylpyrrolidine-2-carboxamide], the “Maximum % activity (with co-corrector)” value is “++ (≥150 and <350)”; the “Maximum % activity (without co-corrector)” value is “+ (<100)”. The 50% effective concentration (EC50) under setting [1] is more than 10000 nM. Further, under setting [2], the 50% effective concentration (EC50) fell in the range of 1000 to 10000 nM.
